Laboratory results taken from publication PMC3877555 (Cell Death & Disease, 2013).

Target: HRas-GTP (Homo sapiens, UniProt P01112)
Test: SPR
Assay type: binding

Chain of HRas-GTP (P01112 1-186): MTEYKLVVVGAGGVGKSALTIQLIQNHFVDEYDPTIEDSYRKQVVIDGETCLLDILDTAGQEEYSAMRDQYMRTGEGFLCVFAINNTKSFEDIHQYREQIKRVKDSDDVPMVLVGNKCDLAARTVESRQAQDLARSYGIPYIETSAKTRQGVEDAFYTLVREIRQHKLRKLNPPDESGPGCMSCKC

C[C@@]12C3=CC(=O)OCC3=C[C@H]3OC(=O)[C@](C)([C@H]31)[C@@H](O)[C@H]1O[C@H]12 [WA, Wentilactone A]
Kd: 15.7 µM
